Activity calls are given as the source filed them. No cut-off for these calls is given here.
How the values were obtained:
HepG2 = assay: Antiproliferative activity against human HepG2 cells assessed as cell viability measured after 48 hrs incubation by MTT assay; type: functional, cell-based; details: HepG2, 48 h
[1] = Antiproliferative activity against human MCF-10A cells assessed as cell viability measured after 48 hrs incubation by MTT assay; type: toxicity, cell-based
MCF7 [2] = assay: Induction of apoptosis in human MCF7 cells assessed as viable cells at 6 uM measured after 48 hrs incubation by Annexin V-FITC/PI double staining assay (reference value: 92.8%); type: functional; details: read-out: Activity
MCF7 [3] = assay: Induction of apoptosis in human MCF7 cells assessed as early apoptotic cells at 6 uM measured after 48 hrs incubation by Annexin V-FITC/PI double staining assay (reference value: 5.73%); type: functional
MCF7 [4] = assay: Induction of apoptosis in human MCF7 cells assessed as late apoptotic cells at 6 uM measured after 48 hrs incubation by Annexin V-FITC/PI double staining assay (reference value: 0.68%); type: functional
MCF7 [5] = assay: Induction of apoptosis in human MCF7 cells assessed as necrotic cells at 6 uM measured after 48 hrs incubation by Annexin V-FITC/PI double staining assay (reference value: 0.77%); type: functional
MCF7 [6] = assay: Induction of apoptosis in human MCF7 cells assessed as early apoptotic cells at 1 uM measured after 48 hrs incubation by Annexin V-FITC/PI double staining assay (reference value: 5.73%); type: functional
MCF7 [7] = assay: Induction of apoptosis in human MCF7 cells assessed as late apoptotic cells at 1 uM measured after 48 hrs incubation by Annexin V-FITC/PI double staining assay (reference value: 0.68%); type: functional
MCF7 [8] = assay: Induction of apoptosis in human MCF7 cells assessed as early apoptotic cells at 3 uM measured after 48 hrs incubation by Annexin V-FITC/PI double staining assay (reference value: 5.73%); type: functional
MCF7 [9] = assay: Induction of apoptosis in human MCF7 cells assessed as late apoptotic cells at 3 uM measured after 48 hrs incubation by Annexin V-FITC/PI double staining assay (reference value: 0.68%); type: functional
MCF7 [10] = assay: Induction of apoptosis in human MCF7 cells assessed as necrotic cells at 3 uM measured after 48 hrs incubation by Annexin V-FITC/PI double staining assay (reference value: 0.77%); type: functional
MCF7 [11] = assay: Induction of apoptosis in human MCF7 cells assessed as increase in ROS production by measuring bright green fluorescence measured after 48 hrs incubation by DCFH-DA staining based flow cytometry assay; type: functional, cell-based; details: dose 1-6 µM
MCF7 [12] = assay: Induction of apoptosis in human MCF7 cells assessed as decrease in mitochondrial membrane potential by measuring increase in JC-1 monomer (green fluorescence) incubated for 48 hrs by JC-1 staining based flow cytometry analysis; type: functional, cell-based; details: dose 1-6 µM
MCF7 [13] = assay: Induction of apoptosis in human MCF7 cells assessed as decrease in mitochondrial membrane potential by measuring increase in JC-1 monomer (green fluorescence) at 1 uM incubated for 48 hrs by JC-1 staining based flow cytometry analysis (reference value: 2.96%); type: functional; design: scale not given: the % may be the effect or the level left
MCF7 [14] = assay: Induction of apoptosis in human MCF7 cells assessed as decrease in mitochondrial membrane potential by measuring increase in JC-1 monomer (green fluorescence) at 3 uM incubated for 48 hrs by JC-1 staining based flow cytometry analysis (reference value: 2.96%); type: functional; design: scale not given: the % may be the effect or the level left
MCF7 [15] = assay: Induction of cell cycle arrest in human MCF7 cells assessed as accumulation of cells at G0/G1 phase at 6 uM measured after 48 hrs by PI staining based flow cytometry analysis (reference value: 58.42%); type: functional
MCF7 [16] = assay: Induction of cell cycle arrest in human MCF7 cells assessed as accumulation of cells at S phase at 6 uM measured after 48 hrs by PI staining based flow cytometry analysis (reference value: 24.67%); type: functional
MCF7 [17] = assay: Induction of cell cycle arrest in human MCF7 cells assessed as accumulation of cells at G2/M phase at 6 uM measured after 48 hrs by PI staining based flow cytometry analysis (reference value: 16.91%); type: functional
MCF7 [18] = assay: Induction of cell cycle arrest in human MCF7 cells assessed as accumulation of cells at G0/G1 phase at 1 uM measured after 48 hrs by PI staining based flow cytometry analysis (reference value: 58.42%); type: functional
MCF7 [19] = assay: Induction of cell cycle arrest in human MCF7 cells assessed as accumulation of cells at S phase at 1 uM measured after 48 hrs by PI staining based flow cytometry analysis (reference value: 24.67%); type: functional
MCF7 [20] = assay: Induction of cell cycle arrest in human MCF7 cells assessed as accumulation of cells at G2/M phase at 1 uM measured after 48 hrs by PI staining based flow cytometry analysis (reference value: 16.91%); type: functional
MCF7 [21] = assay: Induction of cell cycle arrest in human MCF7 cells assessed as accumulation of cells at G0/G1 phase at 3 uM measured after 48 hrs by PI staining based flow cytometry analysis (reference value: 58.42%); type: functional
MCF7 [22] = assay: Induction of cell cycle arrest in human MCF7 cells assessed as accumulation of cells at S phase at 3 uM measured after 48 hrs by PI staining based flow cytometry analysis (reference value: 24.67%); type: functional
MCF7 [23] = assay: Induction of cell cycle arrest in human MCF7 cells assessed as accumulation of cells at G2/M phase at 3 uM measured after 48 hrs by PI staining based flow cytometry analysis (reference value: 16.91%); type: functional
MCF7 [24] = assay: Inhibition of phosphorylation of PI3K in human MCF7 cells measured after 48 hrs by Western blot analysis; type: cell-based; details: dose 1-6 µM
MCF7 [25] = assay: Inhibition of phosphorylation of Akt in human MCF7 cells measured after 48 hrs by Western blot analysis; type: cell-based; details: dose 1-6 µM
[26] = target: Serine/threonine-protein kinase mTOR (Homo sapiens) (UniProt P42345); assay: Inhibition of phosphorylation of mTOR in human MCF7 cells measured after 48 hrs by Western blot analysis; type: cell-based; details: dose 1-6 µM
4T1 [27] = assay: In vivo antitumor activity against mouse 4T1 cells transfected in BALB/c mouse assessed as tumor growth inhibition at 30 mg/kg, ip daily for 14 consecutive days relative to control; type: functional; details: 4T1, 336 h, time 14 day, read-out: TGI
4T1 [28] = assay: In vivo antitumor activity against mouse 4T1 cells transfected in BALB/c mouse assessed as tumor growth inhibition at 15 mg/kg, ip daily for 14 consecutive days relative to control; type: functional; details: 4T1, 336 h, time 14 day, read-out: TGI
[29] = Toxicity in healthy BALB/c mouse assessed as pathological changes in heart at 20 mg/kg, ip daily for 14 consecutive days by HE staining based assay; type: organism-based; details: in vivo, 336 h, time 14 day
[30] = Toxicity in healthy BALB/c mouse assessed as pathological changes in kidneys at 20 mg/kg, ip daily for 14 consecutive days by HE staining based assay; type: organism-based; details: in vivo, 336 h, time 14 day
[31] = Toxicity in healthy BALB/c mouse assessed as pathological changes in heart at 40 mg/kg, ip daily for 14 consecutive days by HE staining based assay; type: organism-based; details: in vivo, 336 h, time 14 day
[32] = Toxicity in healthy BALB/c mouse assessed as pathological changes in liver at 40 mg/kg, ip daily for 14 consecutive days by HE staining based assay; type: organism-based; details: in vivo, 336 h, time 14 day
[33] = Toxicity in healthy BALB/c mouse assessed as pathological changes in spleen at 40 mg/kg, ip daily for 14 consecutive days by HE staining based assay; type: organism-based; details: in vivo, 336 h, time 14 day

With `CC(C)[C@@H](C)/C=C/[C@@H](C)[C@H]1CC[C@@H]2[C@]1(C)CC[C@H]1[C@]23C=C[C@]2(C[C@@H](OC(=O)NCCNC(=O)CN4C(=O)S/C(=C\c5cccc6ccccc56)C4=O)CC[C@]12C)OO3` the IC50 (HepG2) was 5.55 µM, the IC50 at 48 h [1] was 32.3 µM and the viability at 6 µM (MCF7 [2]) was 53%. The Activity (MCF7 [3]) was 44.5%, the Activity (MCF7 [4]) was 1.75% and the Activity (MCF7 [5]) was 0.72%. It also gave an Activity (MCF7 [6]) of 13.7%, an Activity (MCF7 [7]) of 0.9% and an Activity (MCF7 [8]) of 22.8%. The Activity (MCF7 [9]) was 0.77%, the Activity (MCF7 [10]) was 0.77% and the Activity (MCF7 [11]) was “Active”. For the same molecule, the Activity (MCF7 [12]) was “Dose-dependent-effect”, the Activity (MCF7 [13]) was 12.9% and the Activity (MCF7 [14]) was 26.2%. The Activity (MCF7 [15]) was 89.86%, the Activity (MCF7 [16]) was 2.87% and the Activity (MCF7 [17]) was 7.27%. It also gave an Activity (MCF7 [18]) of 66.09%, an Activity (MCF7 [19]) of 14.93% and an Activity (MCF7 [20]) of 18.98%. For the same molecule, the Activity (MCF7 [21]) was 80.77%, the Activity (MCF7 [22]) was 8.41% and the Activity (MCF7 [23]) was 10.83%. For the same molecule, the inhibition (MCF7 [24]) was “Dose-dependent-effect”, the inhibition (MCF7 [25]) was “Dose-dependent-effect” and the inhibition [26] was “Dose-dependent-effect”. The inhibition in vivo at 30 mg/kg (4T1 [27]) was 86.2%, the inhibition in vivo at 15 mg/kg (4T1 [28]) was 33.5% and the Activity [29] was “Non-toxic”. The Activity [30] was “Non-toxic”, the Activity [31] was “Non-toxic” and the Activity [32] was “Non-toxic”. The Activity [33] was “Non-toxic”.

From ChEMBL document CHEMBL6078657, “Thiazolidinedione-based structure modification of ergosterol peroxide provides thiazolidinedione-conjugated derivatives as potent agents against breast cancer cells through a PI3K/AKT/mTOR pathway” (Bioorg Med Chem, 2025)
